Results reported in US20230338495A1, “Vaccine Compositions and Antibodies For Lyme Disease” (priority 2020, published 2023).

Experiments:
[1] = test system: IgM in Lyme Disease patient sera; assay: MSD-ECL assay with Biotin-BBGL-1 / Biotin-BBGL-2 coated streptavidin plates, anti-IgM detection; format: binding, human; conditions: biotinylated antigen coated at 1 ug/mL; for IgM titer, EU: NC= 189.75
Description: (§1) A Meso Scale Discovery Electrochemiluminescence (MSD-ECL) assay was developed using Biotin-BBGL-1 and Biotin-BBGL-2 to measure antibody titers in Lyme Disease patient samples. The assay involved first blocking MSD streptavidin gold plate with 4% BGG (bovine gamma globulin in PBS), washing the plates with PBS and the coating Biotin-BBGL-1 and Biotin-BBGL-2 at concentration of 4 ug/mL (diluted in 4% BGG) for coating for IgG side of plate and at concentration of 1 ug/mL (diluted in 4% BGG) for coating for IgM side of plate. Serum samples (diluted 1:5) were then added to each well, incubated, and washed.
(§2) Detection reagents (Sulfo tag anti-lgG Fc or anti-IgM) were then added, incubated, and washed, followed by reading the plates on a Sector Imager (Meso Scale Diagnostic, Rockville, MD USA).

[2] = test system: IgG in Lyme Disease patient sera; assay: MSD-ECL assay with Biotin-BBGL-1 / Biotin-BBGL-2 coated streptavidin plates, anti-IgG Fc detection; format: binding, human; conditions: biotinylated antigen coated at 4 ug/mL; for IgG titer, EU: NC= 166.75
Description: as §1, §2

Borrelia burgdorferi = assay: In vitro neutralization of Borrelia burgdorferi by Day 30 serum samples from immunized mice; format: in vivo; conditions: Day 30 sera of C3H/HeJ mice, n=6 per group; dosing at day 1 (77 µg/mouse per immunization, 10 µg QS-21/mouse)
Description: A pilot study in mice was conducted to determine the safety and in vitro efficacy of the BBGL-1 and BBGL-2 liposome vaccines in the absence or presence of the adjuvant QS-21 (Desert King International, San Diego, CA USA). Eighty-four (42 male, 42 female) C3H/HeJ mice (The Jackson Laboratory, Bar Harbor, ME USA), at approximately 7 weeks were used in the study, which is outlined in Table 17a and 17b.
7 Group of Mice (6 male and 6 female in each group) were given either 1) adjuvant alone, 2) Immunization A, 3) Adjuvant + Immunization A, 4) Immunization B, 5) Adjuvant + Immunization B, 6) Immunization A + Immunization B, or 7) Adjuvant + Immunization A + Immunization B
Immunization A and Immunization B were administered at 77 µg/mouse doses at day 1 and Day 30. Groups receiving adjuvant received 10 µg QS-21/mouse at Day 1 and Day 30.
Whole blood was collected into serum separator tubes at baseline and days 7, 15, 30, 45, and 60. Blood was allowed to clot and centrifuged at 1500xg and 10° C. for 15 minutes. Serum was aliquoted and stored at -30° C.
Serum aliquots were evaluated after 30 days, for neutralizing antibodies against Borrelia burgdorferi, B. mayonii, B. afzelii, and B. garinii using laboratory developed assays.
In vitro neutralization of Borrelia burgdorferi from Day 30 assessed with half of the mouse serum samples (n=6 per group) are shown in FIG. 7a.

Compound	IgM titer, Fold/Baseline ([1]; patient L1 serum diluted 1:5) [Fold/Baseline]	IgM titer, EU ([1]; patient L1 serum diluted 1:5) [EU]	IgM titer, Fold/Baseline ([1]; patient L2 serum diluted 1:5) [Fold/Baseline]	IgM titer, EU ([1]; patient L2 serum diluted 1:5) [EU]	IgM titer, Fold/Baseline ([1]; patient L3 serum diluted 1:5) [Fold/Baseline]	IgM titer, EU ([1]; patient L3 serum diluted 1:5) [EU]	IgG titer, Fold/Baseline ([2]; patient L1 serum diluted 1:5) [Fold/Baseline]	IgG titer, EU ([2]; patient L1 serum diluted 1:5) [EU]	IgG titer, Fold/Baseline ([2]; patient L2 serum diluted 1:5) [Fold/Baseline]	IgG titer, EU ([2]; patient L2 serum diluted 1:5) [EU]	IgG titer, Fold/Baseline ([2]; patient L3 serum diluted 1:5) [Fold/Baseline]	IgG titer, EU ([2]; patient L3 serum diluted 1:5) [EU]	neutralization activity (Borrelia burgdorferi) [%]
CCCCCCCCCCCCCCCC(=O)OC[C@H]1O[C@@H](O[C@H]2CC[C@@]3(C)C(=CC[C@H]4[C@@H]5CC[C@H]([C@H](C)CCCC(C)C)[C@@]5(C)CC[C@@H]43)C2)[C@H](O)[C@@H](O)[C@H]1O [BBGL1, cholesteryl 6-O-palmitoyl-β-D-galactopyranoside]	21	4055.50	2	390.00	7	1338.00	1.3	218.50	0.9	143.50	1.0	166.00	–
CCCCCCCC/C=C\CCCCCCCC(=O)OC[C@H](CO[C@H]1O[C@H](CO)[C@H](O)[C@H](O)[C@H]1O)OC(=O)CCCCCCCCCCCCCCC [BBGL2, 1-oleoyl-2-palmitoyl-3-(α-D-galactosyl)-sn-glycerol]	18	3458.00	2	344.50	6	1229.50	16	2720.00	4	619.50	1.1	178.00	–
QS-21	–	–	–	–	–	–	–	–	–	–	–	–	> 15
